We go through 48 compounds from patent publication US6686373B2, “Pyrazoloquinolinone derivatives as protein kinase C inhibitors” (Warner-Lambert Company LLC, priority 2001, dated 2004).

Where a name gives a salt, the structure may show the parent alone.

Consider `Cn1ncc2[nH]c3ccc(Cc4cccc(O)c4)cc3c(=O)c21` [Example 20, 7-(3-HYDROXYBENZYL)-1-METHYL-1,4-DIHYDRO-9H-PYRAZOLO[4,3-b]QUINOLIN-9-ONE], for which the melting point – broadly, the temperature, or range, at which the solid turns liquid – is over 270 °C.

`CCCCCCn1c2ccc(C)cc2c(=O)c2c1cnn2C`: the melting point was in the range of 80 to 82 °C. `Cc1ccc2c(c1)c(=O)c1c(cnn1C)n2CCN.Cl` displayed a melting point of over 280 °C. The same measure for `Cl.Cn1ncc2[nH]c3ccc(Cc4ccc(CN)cc4)cc3c(=O)c21`: over 300 °C.

Turning to `Cn1ncc2[nH]c3c(c(=O)c21)CCCC3` [Example 67, 1-METHYL-5,6,7,8-TETRAHYDRO-1H-PYRAZOLO[4,3-b]QUINOLIN-9-OL], the melting point is over 300 °C. The same measure for `Cn1ncc2[nH]c3ccc(Cc4ccccc4C(N)=O)cc3c(=O)c21` [Example 32, 2-[(1-METHYL-9-OXO-4,9-DIHYDRO-1H-PYRAZOLO[4,3-b]QUINOLIN-7-YL)METHYL]BENZAMIDE]: over 300 °C; for `Cc1ccc2c(c1)c(=O)c1c(cnn1C)n2CCCN(C)C.Cl`: 240 °C. For `Cn1ncc2[nH]c3ccc(Cc4ccccc4Cl)cc3c(=O)c21` [Example 15, 7-(2-CHLOROBENZYL)-1-METHYL-1,4-DIHYDRO-9H-PYRAZOLO[4,3-b]QUINOLIN-9-ONE] the value was 278 °C. Compound `CCc1ccc2c(=O)c3c(cnn3C)[nH]c2c1` [Example 9, 6-ETHYL-1-METHYL-1,4-DIHYDRO-9H-PYRAZOLO[4,3-b]QUINOLIN-9-ONE] showed a melting point of 263 °C. The same measure for `CSCCn1c2ccc(C)cc2c(=O)c2c1cnn2C` [Example 53, 1,7-DIMETHYL-4-[2-(METHYLSULFANYL)ETHYL]-1,4-DIHYDRO-9H-PYRAZOLO[4,3-b]QUINOLIN-9-ONE]: 125 °C; for `Cn1ncc2[nH]c3ccc(-c4cccc(O)c4)cc3c(=O)c21` [Example 40, 7-[3-HYDROXYPHENYL]-1-METHYL-1,4-DIHYDRO-9H-PYRAZOLO[4,3-b]QUINOLIN-9-ONE]: over 250 °C; for `Cn1ncc2[nH]c3cccc(F)c3c(=O)c21` [Example 4, 8-FLUORO-1-METHYL-1,4-DIHYDRO-9H-PYRAZOLO[4,3-b]QUINOLIN-9-ONE]: over 300 °C. For `Cn1ncc2[nH]c3ccc(NC(=O)c4ccccc4)cc3c(=O)c21` [Example 46, N-(1-METHYL-9-OXO-4,9-DIHYDRO-1H-PYRAZOLO[4,3-b]QUINOLIN-7-YL)BENZAMIDE] the value was over 300 °C.

As for `Cn1ncc2[nH]c3ccc(Cc4cccc(C(=O)O)c4)cc3c(=O)c21` [Example 30, 3-[(1-METHYL-9-OXO-4,9-DIHYDRO-1H-PYRAZOLO[4,3-b]QUINOLIN-7-YL)METHYL]BENZOIC ACID], the melting point is over 300 °C. `Cn1ncc2[nH]c3ccc(Cc4cccc([N+](=O)[O-])c4)cc3c(=O)c21` [Example 23, 1-METHYL-7-(3-NITROBENZYL)-1,4-DIHYDRO-9H-PYRAZOLO[4,3-b]QUINOLIN-9-ONE]: the melting point lay in the range of 279 to 283 °C.

Regarding `Cl.Cn1ncc2[nH]c3ccc(Cc4ccccc4N)cc3c(=O)c21`, the melting point is 273 °C.

Regarding `CCCCn1c2ccc(C)cc2c(=O)c2c1cnn2C` [Example 48, 4-BUTYL-1,7-DIMETHYL-1,4-DIHYDRO-9H-PYRAZOLO[4,3-b]QUINOLIN-9-ONE], the melting point was found to be 262 °C.

`Cc1ccc2c(c1)c(=O)c1c(cnn1C)n2CCCNS(C)(=O)=O` [Example 60, N-[3-(1,7-DIMETHYL-9-OXO-1,9-DIHYDRO-4H-PYRAZOLO[4,3-b]QUINOLIN-4-YL)PROPYL]METHANESULFONAMIDE] came in with a melting point of 179 °C. `Cl.Cn1ncc2[nH]c3ccc(Cc4cccc(CN)c4)cc3c(=O)c21` yielded a melting point of over 300 °C. As to `Cl.Cn1ncc2[nH]c3ccc(Cc4cccnc4)cc3c(=O)c21`, the melting point is 259 °C. As to `Cn1ncc2[nH]c3c(Br)cccc3c(=O)c21` [Example 5, 5-BROMO-1-METHYL-1,4-DIHYDRO-9H-PYRAZOLO[4,3-b]QUINOLIN-9-ONE], the melting point turned out to be 287 °C.

`Cc1ccc2c(c1)c(=O)c1c(cnn1C)n2CCN(C)C.Cl` showed a melting point of 255 °C. The same measure for `Cl.Cn1ncc2[nH]c3ccc(Cc4ccccc4CN)cc3c(=O)c21`: over 250 °C. As for `Cn1ncc2[nH]c3ccc(Cc4cccc(C(N)=O)c4)cc3c(=O)c21` [Example 29, 3-[(1-METHYL-9-OXO-4,9-DIHYDRO-1H-PYRAZOLO[4,3-b]QUINOLIN-7-YL)METHYL]BENZAMIDE], the melting point is over 300 °C. In turn, `Cc1ccc2[nH]c3c(N)nn(C)c3c(=O)c2c1` [Example 12, 3-AMINO-1,7-DIMETHYL-1,4-DIHYDRO-9H-PYRAZOLO[4,3-b]QUINOLIN-9-ONE] registered a melting point of over 300 °C. `COc1ccc(Cc2ccc3[nH]c4cnn(C)c4c(=O)c3c2)cc1` [Example 16, 7-(4-METHOXYBENZYL)-1-METHYL-1,4-DIHYDRO-9H-PYRAZOLO[4,3-b]QUINOLIN-9-ONE] registered a melting point of 248 to 249 °C. For `Cn1ncc2[nH]c3cc(F)ccc3c(=O)c21` [Example 3, 6-FLUORO-1-METHYL-1,4-DIHYDRO-9H-PYRAZOLO[4,3-b]QUINOLIN-9-ONE] the value was 269 °C; for `Cc1ccc2c(c1)c(=O)c1c(cnn1C)n2CCCCCCN(C)C.Cl`, 210 °C; for `Cn1ncc2[nH]c3cccc(-c4cccc(O)c4)c3c(=O)c21` [Example 39, 8-(3-HYDROXYPHENYL)-1-METHYL-1,4-DIHYDRO-9H-PYRAZOLO[4,3-b]QUINOLIN-9-ONE], over 300 °C.

For `CCc1cccc2c(=O)c3c(cnn3C)[nH]c12` [Example 7, 5-ETHYL-1-METHYL-1,4-DIHYDRO-9H-PYRAZOLO[4,3-b]QUINOLIN-9-ONE], the melting point amounted to 254 °C.

Regarding `Cc1ccc2c(c1)c(=O)c1c(cnn1C)n2CC(N)=O` [Example 52, 2-(1,7-DIMETHYL-9-OXO-1,9-DIHYDRO-4H-PYRAZOLO[4,3-b]QUINOLIN-4-YL)ACETAMIDE], the melting point lay within 247 to 252 °C. The same measure for `Cn1ncc2[nH]c3ccc(F)cc3c(=O)c21` [Example 1, 7-FLUORO-1-METHYL-1,4-DIHYDRO-9H-PYRAZOLO[4,3-b]QUINOLIN-9-ONE]: 301 °C; for `Cn1ncc2[nH]c3ccc(Cc4cccc(C#N)c4)cc3c(=O)c21` [Example 28, 3-[(1-METHYL-9-OXO-4,9-DIHYDRO-1H-PYRAZOLO[4,3-b]QUINOLIN-7-YL)METHYL]BENZONITRILE]: 275 °C. The same measure for `CCc1cccc2[nH]c3cnn(C)c3c(=O)c12` [Example 8, 8-ETHYL-1-METHYL-1,4-DIHYDRO-9H-PYRAZOLO[4,3-b]QUINOLIN-9-ONE]: 250 °C. Compound `COc1ccccc1Cc1ccc2[nH]c3cnn(C)c3c(=O)c2c1` [Example 21, 7-(2-METHOXYBENZYL)-1-METHYL-1,4-DIHYDRO-9H-PYRAZOLO[4,3-b]QUINOLIN-9-ONE] yielded a melting point of 255 °C. In turn, `CCc1ccc2[nH]c3cnn(C)c3c(=O)c2c1` [Example 6, 7-ETHYL-1-METHYL-1,4-DIHYDRO-9H-PYRAZOLO[4,3-b]QUINOLIN-9-ONE] yielded a melting point of 266 °C.

In turn, `Cn1ncc2[nH]c3c(c(=O)c21)CC(Cc1ccc(Cl)cc1)CC3` (stereo not drawn) (as salt: hydrochloride) registered a melting point of 279 °C. With `CCN(C)CCCn1c2ccc(C)cc2c(=O)c2c1cnn2C.Cl`, the melting point was 213 °C. Regarding `Cl.Cn1ncc2[nH]c3ccc(CCCN)cc3c(=O)c21`, the melting point was over 300 °C.

In turn, `Cn1ncc2[nH]c3c(c(=O)c21)CC(Cc1ccccc1)CC3` (stereo not drawn) (as salt: hydrochloride) returned a melting point of over 250 °C.

For `Cc1ccc2c(c1)c(=O)c1c(cnn1C)n2CCCl` [Example 62, 4-(2-CHLOROETHYL)-1,7-DIMETHYL-1,4-DIHYDRO-9H-PYRAZOLO[4,3-b]QUINOLIN-9-ONE], the melting point turned out to be 196 °C. As for `Cc1ccc2c(c1)c(=O)c1c(cnn1C)n2CC#N` [Example 51, (1,7-DIMETHYL-9-OXO-1,9-DIHYDRO-4H-PYRAZOLO[4,3-b]QUINOLIN-4-YL)ACETONITRILE], the melting point lay within 214 to 219 °C. For `Cn1ncc2[nH]c3ccc(Cc4ccc(C#N)cc4)cc3c(=O)c21` [Example 26, 4-[(1-METHYL-9-OXO-4,9-DIHYDRO-1H-PYRAZOLO[4,3-b]QUINOLIN-7-YL)METHYL]BENZONITRILE] the value was 291 °C; for `Cn1ncc2[nH]c3c(F)cccc3c(=O)c21` [Example 2, 5-FLUORO-1-METHYL-1,4-DIHYDRO-9H-PYRAZOLO[4,3-b]QUINOLIN-9-ONE], over 300 °C; for `Cn1ncc2[nH]c3cccc(-c4ccc(O)cc4)c3c(=O)c21` [Example 38, 8-(4-HYDROXYPHENYL)-1-METHYL-1,4-DIHYDRO-9H-PYRAZOLO[4,3-b]QUINOLIN-9-ONE], over 300 °C. On to `Cl.Cn1ncc2[nH]c3ccc(Cc4cccc(N)c4)cc3c(=O)c21`, for which the melting point is 287 °C (dec.). For `CN(C)CCOc1ccc(Cc2ccc3[nH]c4cnn(C)c4c(=O)c3c2)cc1.Cl` the value was 235 to 240 °C. The same measure for `Cn1ncc2[nH]c3ccc(Cc4ccccc4)cc3c(=O)c21` [Example 11, 7-BENZYL-1-METHYL-1,4-DIHYDRO-9H-PYRAZOLO[4,3-b]QUINOLIN-9-ONE]: 282 °C.
